Experiment: In vitro lidocaine release from microparticles (dialysis tube, water, 37° C., UV 214 nm)
Format: physicochemical
Description: Microparticle batches in an amount of 100 mg were placed in a dialysis tube (high retention seamless cellulose tubing; 23 mm×15 mm. MW cut-off 05173; Sigma Aldrich). The tube was then placed in a 30 ml glass vial containing 10 ml of deionized ultra-filtered water (Fisher Scientific). Vials were placed in a reciprocating shaking bath (Reciprocating Shaking Bath Model 50; Precision Scientific) with the temperature adjusted to 37° C., and shaking speed of 100 rpm. […] The entire 10 ml of dissolution medium was replaced with fresh medium at each sampling time interval. Dilution of 0.1 ml of the withdrawn sample was diluted to 10 ml of water in clean culture tubes of borosilicate glass (Pyrex). […] Two samples per microparticle batch were measured for drug release and triplicate samples were prepared for each release interval for UV-absorbance.

In the case of `CCN(CC)CC(=O)Nc1c(C)cccc1C` [lidocaine free base, lidocaine], the “time of peak of release” value (in vitro release profile, single peak) is reported as “about one”, the “time at which release falls below minimum required level (5.6%)” value (in vitro release, point 10) is reported as 2.5 days and the “time at which drug is "exhausted"” value (in vitro release, time point 11) is reported as 3 days. For the same compound, the “peak of lidocaine release” value (in vitro, % released at peak at about one day) was 18%.
